This note sets out measurements from US11207312B2, “Metallo-beta-lactamase inhibitors and methods of use thereof” (priority 2017, dated 2021).

The subject of data set [1] is Serratia marcescens expressing IMP-1 (CL5741). The class given is cell-based. Particulars: with imipenem 1 μg/ml; 95% inhibition of bacterial growth. A digest of the protocol: (§1)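 MITC95 denotes the minimal test-compound level that, combined with 1 μg/ml imipenem, blocks 95% of bacterial growth, measured by absorbance. Overnight-grown clinical isolates were diluted 1:100 in CAMHB and incubated with both agents at 35° C for 22–24 h.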

Data set [2] relates to Escherichia coli expressing NDM-1 (CLB30016). Type of data set: cell-based. The settings on record: with imipenem 1 μg/ml; 95% inhibition of bacterial growth. A digest of the protocol: as §1
Data set [3] deals with Klebsiella pneumoniae expressing VIM-1 (IHMA599644). Type of data set: cell-based. The settings on record: with imipenem 1 μg/ml; 95% inhibition of bacterial growth. The procedure, abridged: as §1
The target in data set [4] is VIM-2 (Escherichia coli, UniProt Q5U7L7). The data set can be described thus: biochemical. The settings on record: CCF2-FA fluorescence assay; read-out: VIM2 IC50.
For data set [5], the system named is P. aeruginosa MB9799 (efflux-, IMP-1 plasmid). The class given is cell-based, Pseudomonas aeruginosa. The settings on record: efflux − (MB9799) strain; imipenem at 2 μg/mL; in the presence of a class A, C, D serine β-lactamase inhibitor closely related to relebactam. The procedure, abridged: (§2)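 PAO1-derived isogenic pair (oprD+, inducible AmpC), efflux+ MB5919 or efflux− MB5890 parent, carrying an electroporated IMP-1 plasmid from a clinical isolate. Microbroth MIC with fixed imipenem and/or ceftazidime (usually CLSI breakpoint) plus fixed class A/C inhibitor; MBL inhibitor serially titrated, concentration restoring susceptibility recorded.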

Data set [6] addresses VIM-1 (Pseudomonas aeruginosa (strain ATCC 15692 / DSM 22644 / CIP 104116 / JCM 14847 / LMG 12228 / 1C / PRS 101 / PAO1), UniProt A0A0F7KYQ8). The data set can be described thus: biochemical. Particulars: CCF2-FA fluorescence assay, 2 hours at 25° C.; read-out: VIM1 IC50. A digest of the protocol: (§3)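 In 100 mM phosphate pH 7 containing Tween-20 and ZnSO4, NDM-1 (1 pM), IMP-1 (2 pM) or VIM-1 (30 pM) hydrolysed 1.25 μM CCF2-FA over 2 hours at 25° C with inhibitor present. Readout was 405/460 nm fluorescence.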

Data set [7] concerns the target IMP-1 (Serratia marcescens, UniProt P52699). The data set can be described thus: biochemical. The settings on record: CCF2-FA fluorescence assay, 2 hours at 25° C.; read-out: IMP1 IC50. The procedure, abridged: as §3
The test system of data set [8] is P. aeruginosa MB9798 (efflux+, IMP-1 plasmid). The settings on record: for MB9798 MITC95 P. aeruginosa uM Efflux WT: efflux + (MB9798) strain, imipenem at 2 μg/mL, in the presence of a class A, C, D serine β-lactamase inhibitor closely related to relebactam; for Efflux ratio: fold difference between efflux+ (MB9798) and efflux− (MB9799) strains. The procedure, abridged: as §2

Data set [9] deals with NDM-1 (Klebsiella pneumoniae, UniProt C7C422). Nature of the data set: biochemical. Type of data set: biochemical. The settings on record: CCF2-FA fluorescence assay, 2 hours at 25° C. The procedure, abridged: as §3
Sequence of NDM-1 (C7C422 whole entry, looked up, species assumed): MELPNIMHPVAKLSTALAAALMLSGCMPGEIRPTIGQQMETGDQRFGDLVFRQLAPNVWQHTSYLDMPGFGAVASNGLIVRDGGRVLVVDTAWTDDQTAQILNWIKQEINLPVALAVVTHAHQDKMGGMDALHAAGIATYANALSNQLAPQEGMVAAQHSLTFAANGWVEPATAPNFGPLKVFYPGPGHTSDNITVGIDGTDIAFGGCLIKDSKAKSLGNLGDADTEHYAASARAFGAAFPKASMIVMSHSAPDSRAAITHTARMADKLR

Molecules are shown by their SMILES.

Sequence of IMP-1 (P52699 whole entry, looked up, species assumed): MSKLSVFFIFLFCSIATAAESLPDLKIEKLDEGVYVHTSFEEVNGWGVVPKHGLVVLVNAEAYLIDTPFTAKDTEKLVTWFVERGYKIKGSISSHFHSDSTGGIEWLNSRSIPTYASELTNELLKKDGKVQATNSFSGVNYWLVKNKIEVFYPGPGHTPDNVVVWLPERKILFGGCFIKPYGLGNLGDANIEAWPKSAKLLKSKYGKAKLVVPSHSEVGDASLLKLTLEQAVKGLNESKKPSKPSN

The term IC50 denotes the concentration needed to halve the response being measured. Regarding `NC[C@H](N)CNS(=O)(=O)c1ccc(N2CCN(CCO)CC2)c(-c2nnn[nH]2)c1S(N)(=O)=O` [Example 49, (S)-N1-(2,3-diaminopropyl)-4-(4-(2-hydroxyethyl)piper-azin-1-yl)-3-(1H-tetrazol-5-yl)benzene-1,2-disulfonamide], the “CL5741 S. marcescens MITC95 IMP” value in data set [1] came to 0.20 µM. Besides, in data set [2], the “CLB30016 E. coli MITC95 NDM” value stood at 0.20 µM. Moreover, the “IHMA599644 K. pneumoniae MITC95 VIM” value in [3] is 1.56 µM. The half-maximal inhibitory concentration (IC50) was found to be 20.2 nM in data set [4], 13.6 nM in data set [6], 9.13 nM in [7] and 5.3 nM in data set [9]. Moreover, the “MB9799 MITC95 P. aeruginosa uM Efflux Mutant” value in data set [5] worked out at 1.56 µM. The “MB9798 MITC95 P. aeruginosa uM Efflux WT” value in data set [8] was 1.56 µM. In addition, in data set [8], the Efflux ratio was 1.00.
For the compound `CC(N)C1CCN(c2ccc(S(=O)(=O)NC[C@H](O)CN)c(S(N)(=O)=O)c2-c2nnn[nH]2)CC1` (stereo partly drawn) [Example 50, N1-((R)-3-amino-2-hydroxypropyl)-4-(4-(1-aminoethyl)piper-idin-1-yl)-3-(1H-tetrazol-5-yl)benzene-1,2-disulfonamide], in data set [1], the “CL5741 S. marcescens MITC95 IMP” value amounted to 0.78 µM. Moreover, the “CLB30016 E. coli MITC95 NDM” value in data set [2] is 0.39 µM. In addition, the “IHMA599644 K. pneumoniae MITC95 VIM” value in [3] stood at 0.78 µM. For the same compound, the IC50 stood at 4.12 nM in [4], 0.15 nM in data set [6], 2.11 nM in [7] and 4.14 nM in data set [9]. The “MB9799 MITC95 P. aeruginosa uM Efflux Mutant” value in data set [5] stood at 0.39 µM. Further, the “MB9798 MITC95 P. aeruginosa uM Efflux WT” value in data set [8] stood at 0.78 µM. Further, the Efflux ratio in [8] turned out to be 2.00.
As to `NCCN1CCN(c2ccc(S(=O)(=O)NC[C@H](O)CN)c(S(N)(=O)=O)c2-c2nnn[nH]2)CC1` [Example 51, (R)-N1-(3-amino-2-hydroxypropyl)-4-(4-(2-aminoethyl)piper-azin-1-yl)-3-(1H-tetrazol-5-yl)benzene-1,2-disulfonamide], in [1], the “CL5741 S. marcescens MITC95 IMP” value came out at 0.39 µM. In data set [2], the “CLB30016 E. coli MITC95 NDM” value was 0.78 µM. The “IHMA599644 K. pneumoniae MITC95 VIM” value in data set [3] was found to be 0.78 µM. Besides, the IC50 came to 3.07 nM in [4], 0.29 nM in data set [6], 1.92 nM in data set [7] and 1.4 nM in [9]. Moreover, in data set [5], the “MB9799 MITC95 P. aeruginosa uM Efflux Mutant” value worked out at 0.39 µM. The “MB9798 MITC95 P. aeruginosa uM Efflux WT” value in data set [8] was found to be 0.78 µM. The Efflux ratio in [8] turned out to be 2.00.
As for `NS(=O)(=O)c1c(S(=O)(=O)N[C@@H]2CCNC2)ccc(N2CCC3(CC2)CNC3)c1-c1nnn[nH]1` [Example 52, (R)-N1-(pyrrolidin-3-yl)-4-(2,7-diazaspiro[3.5]no-nan-7-yl)-3-(1H-tetrazol-5-yl)benzene-1,2-disulfonamide], the “CL5741 S. marcescens MITC95 IMP” value in data set [1] stood at 1.56 µM. Also, the “CLB30016 E. coli MITC95 NDM” value in data set [2] came to 0.78 µM. The “IHMA599644 K. pneumoniae MITC95 VIM” value in data set [3] amounted to 1.56 µM. The IC50 in [4] turned out to be 8.18 nM; in [6], 0.5 nM; in data set [7] it was 3.06 nM; in [9], 0.48 nM. Also, the “MB9799 MITC95 P. aeruginosa uM Efflux Mutant” value in data set [5] was determined as 0.78 µM. Moreover, in data set [8], the “MB9798 MITC95 P. aeruginosa uM Efflux WT” value is 0.78 µM. In addition, in data set [8], the Efflux ratio was determined as 1.00.
Consider `NS(=O)(=O)c1c(S(=O)(=O)C2CNC2)ccc(N2CCN(CCCO)CC2)c1-c1nnn[nH]1` [Example 53, 6-(azetidin-3-ylsulfonyl)-3-[4-(3-hydroxypropyl)piperazin-1-yl]-2-(1H-tetrazol-5-yl)benzenesulfonamide], for which the “CL5741 S. marcescens MITC95 IMP” value in data set [1] was 0.39 µM. Further, the “CLB30016 E. coli MITC95 NDM” value in [2] was 0.39 µM. Further, the “IHMA599644 K. pneumoniae MITC95 VIM” value in [3] turned out to be 3.13 µM. Besides, the IC50 in data set [4] came to 35.5 nM; in data set [6], 25.1 nM; in [7], 7.81 nM; in data set [9], 8.79 nM. Besides, the “MB9799 MITC95 P. aeruginosa uM Efflux Mutant” value in data set [5] stood at 1.56 µM. The “MB9798 MITC95 P. aeruginosa uM Efflux WT” value in [8] was 6.25 µM. Further, the Efflux ratio in [8] is reported as 4.00.
